Measurements from PMC10281575, “PfCRT mutations conferring piperaquine resistance in falciparum malaria shape the kinetics of quinoline drug binding and transport” (PLOS Pathogens, 2023).
“And” between values parts separate entries of the source, which are not always exact repeats. Equal values may be shown once.

Molecular target: T1, PfCRT^Dd2 (Plasmodium falciparum, UniProt Q8IBZ9, A220S/I356T/K76T/M74I/N326S/N75E/Q271E/R371I)
T1 sequence (Q8IBZ9 1-424 M74I/N75E/K76T/A220S/Q271E/N326S/I356T/R371I): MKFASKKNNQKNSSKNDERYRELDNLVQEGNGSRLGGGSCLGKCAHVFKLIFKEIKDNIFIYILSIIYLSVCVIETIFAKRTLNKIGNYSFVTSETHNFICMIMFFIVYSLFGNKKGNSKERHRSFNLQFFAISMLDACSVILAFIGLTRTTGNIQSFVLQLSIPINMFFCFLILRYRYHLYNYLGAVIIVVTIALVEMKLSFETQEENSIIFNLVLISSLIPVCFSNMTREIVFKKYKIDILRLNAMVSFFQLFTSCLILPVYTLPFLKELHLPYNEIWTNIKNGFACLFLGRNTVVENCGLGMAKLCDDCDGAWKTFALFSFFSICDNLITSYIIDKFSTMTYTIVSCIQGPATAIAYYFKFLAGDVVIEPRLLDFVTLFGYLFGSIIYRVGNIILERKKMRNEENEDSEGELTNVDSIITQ
Assay: Competition plot (Vtotal versus proportion of PPQ in CQ/PPQ mixtures), PfCRT^Dd2
Assay type: cell-based
Set-up: expressed in transfected cells; host or cells: Xenopus laevis oocytes injected with in vitro transcribed RNA (pSP64T)
Conditions: for competition plot result (binding sites): CQ/PPQ mixtures, curve with a maximum
Procedure: To test this hypothesis, we performed competition plot experiments, in which the enzyme or carrier is exposed to substrate mixtures that give the same transport rate for different substrates. The experiment is performed with substrate A labeled and then repeated with substrate B labeled.
The competition plot tests whether two substrates bind to the same site or distinct sites on an enzyme or transporter. A competitive reaction would yield data points that lie on a horizontal line, whereas allosteric interactions would reveal a curved relationship. […] Vtotal was subsequently analyzed as a function of the proportion of PPQ in the mixture (P). For more details see Materials and Methods. The mean ± SEM of at least 3 independent biological replicates are shown.
The competition plot was performed as described elsewhere. […] These corresponded to values of P equal to 0, 0.25, 0.5, 0.75, 0.9 and 1. A plot of Vtotal as a function of P yielded the competition plots. If both substrates bind to the same site, then a constant Vtotal is expected across all P values (e.g. data lies on a horizontal line). If the substrates bind to different sites, and they inhibit each other’s transport, it is expected that the curve is concave with either a minimum or a maximum.

[1] = CQ/PPQ mixture, P = 0.25, single replicates
[2] = CQ/PPQ mixture, P = 0.5, single replicates
[3] = CQ/PPQ mixture, P = 0.75, single replicates
[4] = CQ/PPQ mixture, P = 0.9, single replicates

Structure (SMILES) | PfCRTDd2-mediated PPQ transport P = 0.25 [1] | PfCRTDd2-mediated PPQ transport P = 0.5 [2] | PfCRTDd2-mediated PPQ transport P = 0.75 [3] | PfCRTDd2-mediated PPQ transport P = 0.9 [4] | PfCRTDd2-mediated PPQ transport P = 1 (CQ/PPQ mixture, P = 1, single replicates) | competition plot result (binding sites) | PfCRTDd2-mediated CQ transport P = 0 (CQ/PPQ mixture, P = 0, single replicates) | PfCRTDd2-mediated CQ transport P = 0.25 [1] | PfCRTDd2-mediated CQ transport P = 0.5 [2] | PfCRTDd2-mediated CQ transport P = 0.75 [3] | PfCRTDd2-mediated CQ transport P = 0.9 [4]
Clc1ccc2c(N3CCN(CCCN4CCN(c5ccnc6cc(Cl)ccc56)CC4)CC3)ccnc2c1 [PPQ, piperaquine] | 3.23 pmol oocyte-1 h-1 and 2.01 pmol oocyte-1 h-1 and 4.17 pmol oocyte-1 h-1 | 8.67 pmol oocyte-1 h-1 and 8.62 pmol oocyte-1 h-1 and 9.88 pmol oocyte-1 h-1 | 14.14 pmol oocyte-1 h-1 and 12.26 pmol oocyte-1 h-1 and 14.54 pmol oocyte-1 h-1 | 15.27 pmol oocyte-1 h-1 and 15.64 pmol oocyte-1 h-1 and 17.36 pmol oocyte-1 h-1 and 20.19 pmol oocyte-1 h-1 | 17.53 pmol oocyte-1 h-1 and 18.98 pmol oocyte-1 h-1 and 22.10 pmol oocyte-1 h-1 | bind at different sites | – | – | – | – | –
CCN(CC)CCCC(C)Nc1ccnc2cc(Cl)ccc12 (stereo not drawn) [CQ, chloroquine] | – | – | – | – | – | bind at different sites | 20.79 pmol oocyte-1 h-1 and 22.58 pmol oocyte-1 h-1 and 19.58 pmol oocyte-1 h-1 and 16.43 pmol oocyte-1 h-1 | 18.03 pmol oocyte-1 h-1 and 18.73 pmol oocyte-1 h-1 and 18.01 pmol oocyte-1 h-1 | 16.36 pmol oocyte-1 h-1 and 12.29 pmol oocyte-1 h-1 | 7.91 pmol oocyte-1 h-1 and 7.73 pmol oocyte-1 h-1 and 11.16 pmol oocyte-1 h-1 and 8.67 pmol oocyte-1 h-1 | 4.33 pmol oocyte-1 h-1 and 3.12 pmol oocyte-1 h-1 and 4.83 pmol oocyte-1 h-1
